This assay has as its target Nociceptin receptor (Homo sapiens, UniProt P41146).

We go through one substance from BindingDB's records for doi:10.1124/jpet.105.083436 (Louisiana State University, 2005).

As usually defined, the Ki is a measure of affinity in units of concentration, obtained from inhibition or displacement.

Sequence of Nociceptin receptor (P41146 whole entry): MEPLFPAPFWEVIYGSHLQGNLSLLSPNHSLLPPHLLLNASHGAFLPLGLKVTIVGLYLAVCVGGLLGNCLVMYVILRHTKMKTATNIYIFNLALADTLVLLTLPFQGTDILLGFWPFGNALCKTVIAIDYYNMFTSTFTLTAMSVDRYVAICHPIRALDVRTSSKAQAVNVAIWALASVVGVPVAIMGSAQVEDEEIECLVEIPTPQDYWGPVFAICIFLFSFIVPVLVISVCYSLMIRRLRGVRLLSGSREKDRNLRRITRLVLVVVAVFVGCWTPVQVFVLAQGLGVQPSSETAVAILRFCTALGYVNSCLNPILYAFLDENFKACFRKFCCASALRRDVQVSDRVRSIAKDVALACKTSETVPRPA

Ac-RYYRWKKKKKKK-NH2 registered a Ki of 500 pM.
